Where a name gives a salt, the structure may show the parent alone. Read-outs that look alike come from different tables or passages of the source.
Tested on: Hsp90
Assay: IC50 of compounds of the invention, Example B Method 2 (Tables 6-9)
Type: cell-based, human
Settings: Her2 degradation / inhibition of Hsp90, Method 2: MV-4-11 cells, 72 hours, Cell Counting Kit-8

Row | SMILES | IC50 (Table 7, read-out: IC50) [nM] | also measured
1 | COCCN(C)c1ccc(-n2c(O)nnc2-c2cc(C(C)C)c(O)cc2O)cn1 [Compound 1d, 4-(4-(6-(N-(2-methoxyethyl)-N-methylamino)pyridin-3-yl)-5-hydroxy-4H-1,2,4-triazol-3-yl)-6-isopropylbenzene-1,3-diol] | – | IC50 (Table 9, read-out: IC50 Range): 30 nM
2 | CC(C)c1cc(-c2nnc(NC(=O)c3ccco3)n2-c2ccc3c(ccn3C)c2)c(O)cc1O [Compound 15a, N-(5-(2,4-dihydroxy-5-isopropylphenyl)-4-(1-methyl-1H-indol-5-yl)-4H-1,2,4-triazol-3-yl)furan-2-carboxamide] | 1040 | –
3 | COCCC(=O)Oc1cc(O)c(-c2nnc(OC(=O)CCOC)n2-c2ccc3c(ccn3C)c2)cc1C(C)C [Compound 18b, 5-hydroxy-2-isopropyl-4-(5-(3-methoxypropanoyloxy)-4-(1-methyl-1H-indol-5-yl)-4H-1,2,4-triazol-3-yl)phenyl 3-methoxypropanoate] | – | IC50 (Table 8, read-out: IC50): < 100 nM
4 | CC(C)c1cc(-c2nnc(O)n2-c2cccc(S(=O)(=O)N3CCOCC3)c2)c(O)cc1O [Compound 15d, 4-(5-hydroxy-4-(3-(morpholinosulfonyl)phenyl)-4H-1,2,4-triazol-3-yl)-6-isopropylbenzene-1,3-diol] | – | IC50 (Table 9, read-out: IC50 Range): 330 nM
5 | CC(C)C(=O)Nc1nnc(-c2cc(C(C)C)c(O)cc2O)n1-c1ccc2c(ccn2C)c1 [Compound 14a, N-(5-(2,4-dihydroxy-5-isopropylphenyl)-4-(1-methyl-1H-indol-5-yl)-4H-1,2,4-triazol-3-yl)isobutyramide] | 1560 | –
6 | COc1cccc(Nc2nnc(-c3cc(C(C)C)c(O)cc3O)n2-c2ccc3c(ccn3C)c2)c1 [Compound 8a, 4-isopropyl-6-(5-(3-methoxyphenylamino)-4-(1-methyl-1H-indol-5-yl)-4H-1,2,4-triazol-3-yl)benzene-1,3-diol] | 1800 | –
7 | CC(C)c1cc(-c2nnc(O)n2-c2ccc(N(C)C)nc2)c(O)cc1O [Compound 6d, 4-(4-(6-(dimethylamino)pyridin-3-yl)-5-hydroxy-4H-1,2,4-triazol-3-yl)-6-isopropylbenzene-1,3-diol] | – | IC50 (Table 9, read-out: IC50 Range): 58 nM
8 | COCCOc1ccc(-c2nnc(S)n2-c2cccc3ccccc23)c(O)c1 [Compound 5b, 2-(5-mercapto-4-(naphthalen-1-yl)-4H 1,2,4-triazol-3-yl)-5-(2-methoxyethoxy) phenol] | – | IC50 (Table 8, read-out: IC50): 30000 nM
9 | CC(C)c1cc(-c2nnc(Nc3ccc4ncccc4c3)n2-c2ccc3c(ccn3C)c2)c(O)cc1O [Compound 5a, 4-isopropyl-6-(4-(1-methyl-1H-indol-5-yl)-5-(quinolin-6-ylamino)-4H-1,2,4-triazol-3-yl)benzene-1,3-diol] | 680 | –
10 | CC(C)c1cc(-c2nnc(NCc3ccccc3)n2-c2ccc3c(ccn3C)c2)c(O)cc1O [Compound 3a, 4-Isopropyl-6-[4-(1-methyl-1H-indol-5-yl)-5-benzylamino-4H-[1,2,4]triazol-3-yl]-benzene-1,3-diol] | 35000 | –
11 | CC(=O)Nc1nnc(-c2cc(C(C)C)c(O)cc2O)n1-c1ccc2c(ccn2C)c1 [Compound 11a, N-(5-(2,4-dihydroxy-5-isopropylphenyl)-4-(1-methyl-1H-indol-5-yl)-4H-1,2,4-triazol-3-yl)acetamide] | 382 | –
12 | CNc1nnc(-c2cc(C(C)C)c(O)cc2O)n1-c1ccc2c(ccn2C)c1 [Compound 2a, 4-Isopropyl-6-[4-(1-methyl-1H-indol-5-yl)-5-methylamino-4H-[1,2,4]triazol-3-yl]-benzene-1,3-diol] | 3500 | –
13 | CC(N)C(=O)Oc1cc(OC(=O)C(C)N)c(C(C)C)cc1-c1nn(C(=O)C(C)N)c(=O)n1-c1ccc2c(ccn2C)c1 (centres unmarked) [Compound 16b, 4-(1-(2-aminopropanoyl)-4-(1-methyl-1H-indol-5-yl)-5-oxo-4,5-dihydro-1H-1,2,4-triazol-3-yl)-6-isopropyl-1,3-phenylene bis(2-aminopropanoate) trihydrochloride] | – | IC50 (Table 8, read-out: IC50): 56 nM
14 | CC(C)c1cc(-c2nnc(O)n2-c2ccc(N(C)C)c(S(N)(=O)=O)c2)c(O)cc1O [Compound 12d, 5-(3-(2,4-dihydroxy-5-isopropylphenyl)-5-hydroxy-4H-1,2,4-triazol-4-yl)-2-(dimethylamino)benzene sulfonamide] | – | IC50 (Table 9, read-out: IC50 Range): 336 nM
15 | CC(C)c1cc(-c2nnc(NC(=O)COc3ccc(Cl)cc3)n2-c2ccc3c(ccn3C)c2)c(O)cc1O [Compound 19a, 2-(4-chlorophenoxy)-N-(5-(2,4-dihydroxy-5-isopropylphenyl)-4-(1-methyl-1H-indol-5-yl)-4H-1,2,4-triazol-3-yl)acetamide] | 2740 | –
16 | CC(C)c1cc(-c2nn(C(=O)C(N)Cc3ccccc3)c(=O)n2-c2ccc3c(ccn3C)c2)c(OC(=O)C(N)Cc2ccccc2)cc1OC(=O)C(N)Cc1ccccc1 (centres unmarked) [Compound 17b, 4-(1-(2-amino-3-phenylpropanoyl)-4-(1-methyl-1H-indol-5-yl)-5-oxo-4,5-dihydro-1H-1,2,4-triazol-3-yl)-6-isopropyl-1,3-phenylene bis(2-amino-3-phenylpropanoate) trihydrochloride] | – | IC50 (Table 8, read-out: IC50): 46 nM
17 | CC(C)c1cc(-c2nnc(O)n2-c2ccc(N(C)CC(=O)O)nc2)c(O)cc1O [Compound 4d, 2-(N-(5-(3-(2,4-dihydroxy-5-isopropylphenyl)-5-oxo-1H-1,2,4-triazol-4(5H)-yl)pyridin-2-yl)-N-methylamino)acetic acid] | – | IC50 (Table 9, read-out: IC50 Range): 330 nM
18 | CC(C)c1cc(-c2nnc(Nc3cccc(C(F)(F)F)c3)n2-c2ccc3c(ccn3C)c2)c(O)cc1O [Compound 7a, 4-isopropyl-6-(4-(1-methyl-1H-indol-5-yl)-5-(3-(trifluoromethyl)phenylamino)-4H-1,2,4-triazol-3-yl)benzene-1,3-diol] | > 5000 | –
19 | CC(C)c1cc(-c2nnc(NC(=O)C(F)(F)F)n2-c2ccc3c(ccn3C)c2)c(O)cc1O [Compound 18a, N-(5-(2,4-dihydroxy-5-isopropylphenyl)-4-(1-methyl-1H-indol-5-yl)-4H-1,2,4-triazol-3-yl)-2,2,2-trifluoroacetamide] | 3000 | –
20 | CC(C)c1cc(-c2nn(COC(=O)C(N)Cc3ccccc3)c(=O)n2-c2ccc3c(ccn3C)c2)c(O)cc1O (centres unmarked) [Compound 13b, (3-(2,4-dihydroxy-5-isopropylphenyl)-4-(1-methyl-1H-indol-5-yl)-5-oxo-4,5-dihydro-1H-1,2,4-triazol-1-yl)methyl 2-amino-3-phenylpropanoate] | – | IC50 (Table 8, read-out: IC50): 27 nM
21 | CC(C)c1cc(-c2nnc(Nc3cccc(N)c3)n2-c2ccc3c(ccn3C)c2)c(O)cc1O [Compound 6a, 4-(5-(3-aminophenylamino)-4-(1-methyl-1H-indol-5-yl)-4H-1,2,4-triazol-3-yl)-6-isopropylbenzene-1,3-diol] | 2900 | –
22 | Cc1cc(C(=O)Nc2nnc(-c3cc(C(C)C)c(O)cc3O)n2-c2ccc3c(ccn3C)c2)no1 [Compound 10a, N-(5-(2,4-dihydroxy-5-isopropylphenyl)-4-(1-methyl-1H-indol-5-yl)-4H-1,2,4-triazol-3-yl)-5-methylisoxazole-3-carboxamide] | 7860 | –
23 | CC(C)c1cc(-c2nnc(O)n2-c2ccc3c(ccn3C(=O)CCNC(=O)OC(C)(C)C)c2)c(O)cc1O [Compound 10b, tert-butyl 3-(5-(3-(2,4-dihydroxy-5-isopropylphenyl)-5-hydroxy-4H-1,2,4-triazol-4-yl)-1H-indol-1-yl)-3-oxopropylcarbamate] | – | IC50 (Table 8, read-out: IC50): < 110 nM

Reference: patent US8835464B2, “Triazole compounds that modulate HSP90 activity” (Synta Pharmaceuticals Corp., priority 2006, dated 2014)
